In US12589085B2, “Use of diaminoguanidine derivative and feed composition thereof in preparation of veterinary drug” (priority 2019, dated 2026):
Like-named read-outs stand apart in the source and are kept apart here.

Key:
[1] = tested on: bone marrow cells of mice; details: cyclophosphamide 40 mg/kg intraperitoneal, n = 5
Description: Experimental animals: 60 clean and healthy ICR mice have the average weight of 18-20 g, half female and half male, purchased from the Comparative Medicine Center of Yangzhou University. […]
Specimen preparation: 6 hours after the second administration of the test article, […] and 5 […] in each group were sacrificed by cervical dislocation. […] The fixed smear is stained with Giemsa application solution for 15-30 min, rinsed with distilled water, dried, and gets ready for inspection.
The film was read by double-blind method, the number of polychromatic red blood cells (PCE) of each mouse was recorded in each group, including the number of micronucleus PCE cells, and the number of mature red blood cells (RBC), and the like. The number of polychromatic red blood cells (PCE) was calculated, including the number of micronucleus PCE cells and the number of mature red blood cells (RBC) in each test group of male and female mice respectively, and the results were listed.
The experimental data is processed by SPSS 11.0 statistical software, and the analysis result is expressed as x±SD, and the incidence of micronucleus is statistically processed according to the X^2 test (α=0.05).

[2] = tested on: sperm; details: cyclophosphamide 40 mg/kg once a day 5 days
Description: Experimental animals: 60 clean-grade healthy male ICR mice having the average weight of 18-20 g, purchased from the Comparative Medicine Center of Yangzhou University.
Reagents: Test agent, Compound 2, provided by Guangzhou Insighter Biotechnology Co., Ltd., was prepared into a suspension of the required concentration with 1.0% sodium carboxymethyl cellulose before use; the mutagenic positive control article of cyclophosphamide with the content of 99.00%; other reagents include sodium chloride, methanol, and eosin, all of analytical grade; self-prepared physiological saline; self-prepared eosin aqueous solution (2%).
The test article, Compound 2 was diluted with 1.0% sodium carboxymethyl cellulose as a solvent, and it was given by oral in different concentrations and the same volume. There is also a positive control and a negative (solvent) control. The cyclophosphamide was selected as the positive control (40 mg/kg).
Grouping of experimental animals: 60 healthy male mice were individually weighed, labeled and numbered, and they were divided into 5 groups with 12 mice in each group using a completely random method. It was ensured that 10 animals in each group survive for sampling and film making after administration.
Administration: The administration method is carried out according to GB15193.7-2003. The test group, the negative control and the positive control are all given the test article by oral once a day for 5 consecutive days. The weight of the mouse for each administration was weighed, and the volume of the test article that each mouse should administer was calculated according to the requirements of the mouse 0.2 mL/10 g b.w.
Sampling and sample preparation: The mice were sacrificed by cervical dislocation on the Day 35 after the first administration, and sampling and film making were performed. 10 mice were sampled in each dose group. The abdominal cavity was cut, the epididymis on both sides were separated and extracted, and put in a petri dish containing 2 mL of normal saline; The mice were longitudinally cut with ophthalmological scissors for 2 times, the normal saline in it was pipetted with a straw for several times, and let stand for 3 min; the tissue fragments were filtered with a 4-layer of lens cleaning paper, 1 drop of the filtrate was drawn onto the glass slide, the slide was pushed with 4 slides per mouse; the slide in the air dried naturally, and fixed with methanol for 10 minutes, and dried; stained with 2% eosin for 1 h, the dye solution was gently washed off with water, and it was dried naturally before microscopic examination.
Data collation and analysis: The number of normal sperm, the number of abnormal sperm and the number of various types of abnormal sperm were read and counted in each dose group of mice. The sperm abnormality rate (%) of mice in each dose group and the percentage (%) of various types of abnormal sperm were calculated, and the standard deviation of the sperm abnormality rate of mice was also calculated in each dose group. Calculation as follows:
The sperm abnormality rate of mice in each dose group was statistically compared with the sperm abnormality rate of mice in the negative (solvent) control. The experimental data was processed by SPSS 11.0 statistical software, and the analysis results were expressed as x±SD, and the incidence of sperm abnormalities was statistically processed according to the X^2 (α=0.05).
If the dose of the test group has caused the animal to die, while the sperm abnormality has not increased, the result can be judged to be negative.

Q: How did the “PCE micronucleus rate” value ([1]; female mice) turn out when O=P1(N(CCCl)CCCl)NCCCO1 (stereo not drawn) [Positive control, cyclophosphamide, reference compound] was run?
A: 15.00 ± 2.42 ‰

Q: What about the PCE micronucleus rate ([1]; male mice) of the same compound?
A: 15.20 ± 2.37 ‰

Q: What about the “Total number of abnormal sperm” value ([2]; Day 35, 10000 sperm) of the same compound?
A: 559

Q: What about the “abnormal sperm: Amorphous” value ([2]; Day 35, 10000 sperm) of the same compound?
A: 248

Q: And the “abnormal sperm: Banana shape” value ([2]; Day 35, 10000 sperm)?
A: 91

Q: And the “abnormal sperm: Double head” value ([2]; Day 35, 10000 sperm)?
A: 13

Q: What about the “abnormal sperm: Double tail” value ([2]; Day 35, 10000 sperm) of the same compound?
A: 25

Q: And the “abnormal sperm: Fat head” value ([2]; Day 35, 10000 sperm)?
A: 21

Q: And the “abnormal sperm: Fold tail” value ([2]; Day 35, 10000 sperm)?
A: 12

Q: What about the “abnormal sperm: No hook” value ([2]; Day 35, 10000 sperm) of the same compound?
A: 149

Q: And the “Number of Abnormal sperm (x ± SD)” value ([2]; Day 35, n = 10)?
A: 55.90

Q: And the Sperm deformity ([2]; Day 35, n = 10)?
A: 5.26 ± 0.18%
